Source: the NIST ThermoML archive (doi:10.1016/j.fluid.2018.07.018)
Numbers after ± are expanded uncertainties.

Settings: Crystal; DTA

Normal melting temperature: 82.00 ± 1.1 °C
Structure (SMILES): CC(C)OC(=O)C(C)(C)Oc1ccc(C(=O)c2ccc(Cl)cc2)cc1 [fenofibrate]
